Source: patent US4994376A, “Detection of bacteroides gingivalis” (priority 1987, dated 1991)
Where two headings read alike, the source gives them in different places. Peptide text beside a SMILES is read from it. * marks the point of attachment. βNA = c1ccc2cc(N*)ccc2c1

Legend:
Assay type in all cases: biochemical
A. seminis = conditions: strain ATCC 15768; β-naphthylamine liberated after 60 minutes, 37° C.
Method: (§1) The enzyme activity was measured by the chromogenic properties of N-CBz-glycyl-glycyl-L-arginine-β-naphthylamide which upon hydrolysis gives a visible color. The aminopeptidase activities listed in the table reflect the nanomoles of β-naphthylamine liberated after 60 minutes under the conditions described below.
(§2) After mixing, the solution is incubated for 1 hour at 37° C. and then 0.4 ml of a solution of stabilized diazonium salt, Fast Garnet GBC (0.5 mg/ml) in a 1M acetic acid buffer (pH 4.2), containing 10% Tween 20 was added to the mixture. After standing for 15 minutes at room temperature, the color reaction can be read manually by comparison with standard solutions or the absorbancy can be determined using a spectrophotometer at 525 nm. The reaction mixture without enzyme solution is used as a control.
(§3) The enzyme activity and the aminopeptidase activities were determined in the manner described above in regard to Table I.

Veillonella sp. = conditions: strain SE1M2; β-naphthylamine liberated after 60 minutes, 37° C.
Method: as §1, §2, §3

Streptococcus mitis = conditions: β-naphthylamine liberated after 60 minutes, 37° C.
Method: as §1, §2, §3

"Anaerobic vibrio" = conditions: strain SN2T2; β-naphthylamine liberated after 60 minutes, 37° C.
Method: as §1, §2, §3

[1] = test system: Actinobacillus actinomycetemcomitans; conditions: β-naphthylamine liberated after 60 minutes, 37° C.
Method: as §1, §2, §3

A. viscosus = conditions: β-naphthylamine liberated after 60 minutes, 37° C.
Method: as §1, §2, §3

Fusobacterium nucleatum = conditions: β-naphthylamine liberated after 60 minutes, 37° C.
Method: as §1, §2, §3

S. mutans = conditions: strain ATCC 25175; β-naphthylamine liberated after 60 minutes, 37° C.
Method: as §1, §2, §3

Eikenella corrodens = conditions: strain BP1-6; β-naphthylamine liberated after 60 minutes, 37° C.
Method: as §1, §2, §3

Campylobacter sputorum = conditions: strain Ba1-21; β-naphthylamine liberated after 60 minutes, 37° C.
Method: as §1, §2, §3

Actinomyces israeli = conditions: β-naphthylamine liberated after 60 minutes, 37° C.
Method: as §1, §2, §3

V. parvula = conditions: strain ATCC 10790; β-naphthylamine liberated after 60 minutes, 37° C.
Method: as §1, §2, §3

S. sanguis = conditions: β-naphthylamine liberated after 60 minutes, 37° C.
Method: as §1, §2, §3

C. ochracea = conditions: strain ATCC 27872; β-naphthylamine liberated after 60 minutes, 37° C.
Method: as §1, §2

B. mel. ss. intermedius = conditions: β-naphthylamine liberated after 60 minutes, 37° C.
Method: as §1, §2

B. levii = conditions: β-naphthylamine liberated after 60 minutes, 37° C.
Method: as §1, §2

Bacteroides gingivalis = conditions: β-naphthylamine liberated after 60 minutes, 37° C.
Method: as §1, §2

Capnocytophaga sp. = conditions: strain JD3-5; β-naphthylamine liberated after 60 minutes, 37° C.
Method: as §1, §2

B. loescheii = conditions: β-naphthylamine liberated after 60 minutes, 37° C.
Method: as §1, §2

B. asaccharolyticus = conditions: β-naphthylamine liberated after 60 minutes, 37° C.
Method: as §1, §2

Haemophilus aphrophilus = assay: Aminopeptidase activity on β-naphthylamide substrates; conditions: β-naphthylamine liberated after 60 minutes, 37° C.
Method: as §1, §2, §3

L. fermentum = assay: as above; conditions: strain ATCC 11581; β-naphthylamine liberated after 60 minutes, 37° C.
Method: as §1, §2, §3

F. periodonticum = assay: as above; conditions: strain EK1-15; β-naphthylamine liberated after 60 minutes, 37° C.
Method: as §1, §2, §3

A. suis = assay: as above; conditions: strain ATCC 15557; β-naphthylamine liberated after 60 minutes, 37° C.
Method: as §1, §2, §3

Lactobacillus casei = assay: as above; conditions: β-naphthylamine liberated after 60 minutes, 37° C.
Method: as §1, §2, §3

S. salivarius = assay: as above; conditions: β-naphthylamine liberated after 60 minutes, 37° C.
Method: as §1, §2, §3

A. equuli = assay: as above; conditions: strain ATCC 19392; β-naphthylamine liberated after 60 minutes, 37° C.
Method: as §1, §2, §3

With `CC(C)C[C@H](NC(=O)[C@@H]1CCCN1C(=O)CN)C(=O)Nc1ccc2ccccc2c1` [Gly-Pro-Leu] (H-Gly-Pro-Leu-βNA) as the molecule, how does the Aminopeptidase activity (A. seminis) read?
Its Aminopeptidase activity is 0 nmol.

What about the Aminopeptidase activity (Veillonella sp.) of the same molecule?
The Aminopeptidase activity was 0 nmol.

And the Aminopeptidase activity (Streptococcus mitis; strain ATCC 9815)?
Its Aminopeptidase activity is 27 nmol.

And the Aminopeptidase activity (Streptococcus mitis; strain ATCC 15909)?
The Aminopeptidase activity was 7 nmol.

What about the Aminopeptidase activity (Streptococcus mitis; strain ATCC 15912) of the same molecule?
The Aminopeptidase activity was 11 nmol.

And the Aminopeptidase activity ("Anaerobic vibrio")?
Its Aminopeptidase activity is 0 nmol.

And the Aminopeptidase activity ([1]; strain 67)?
The Aminopeptidase activity was 1 nmol.

And the Aminopeptidase activity ([1]; strain 75)?
Its Aminopeptidase activity is 1 nmol.

And the Aminopeptidase activity ([1]; strain ATCC 29523)?
Its Aminopeptidase activity is 0 nmol.

And the Aminopeptidase activity ([1]; strain NCTC 9709)?
Its Aminopeptidase activity is 0 nmol.

And the Aminopeptidase activity ([1]; strain Y4)?
The Aminopeptidase activity was 0 nmol.

What about the Aminopeptidase activity (A. viscosus; strain ATCC 19246) of the same molecule?
The Aminopeptidase activity was 0 nmol.

What about the Aminopeptidase activity (A. viscosus; strain T14V) of the same molecule?
The Aminopeptidase activity was 2 nmol.

And the Aminopeptidase activity (Fusobacterium nucleatum; strain 2)?
The Aminopeptidase activity was 0 nmol.

And the Aminopeptidase activity (Fusobacterium nucleatum; strain ATCC 25586)?
The Aminopeptidase activity was 2 nmol.

And the Aminopeptidase activity (Fusobacterium nucleatum; strain D31A-24)?
The Aminopeptidase activity was 2 nmol.

What about the Aminopeptidase activity (S. mutans) of the same molecule?
The Aminopeptidase activity was 0 nmol.

And the Aminopeptidase activity (Eikenella corrodens)?
The Aminopeptidase activity was 0 nmol.

And the Aminopeptidase activity (Campylobacter sputorum)?
The Aminopeptidase activity was 2 nmol.

What about the Aminopeptidase activity (Actinomyces israeli; strain ATCC 12103) of the same molecule?
The Aminopeptidase activity was 0 nmol.

What about the Aminopeptidase activity (Actinomyces israeli; strain DK2-3) of the same molecule?
The Aminopeptidase activity was 0 nmol.

What about the Aminopeptidase activity (V. parvula) of the same molecule?
The Aminopeptidase activity was 0 nmol.

And the Aminopeptidase activity (S. sanguis; strain ATCC 10556)?
Its Aminopeptidase activity is 11 nmol.

And the Aminopeptidase activity (S. sanguis; strain ATCC 10557)?
Its Aminopeptidase activity is 6 nmol.

What about the Aminopeptidase activity (C. ochracea) of the same molecule?
Its Aminopeptidase activity is 41 nmol.

What about the Aminopeptidase activity (B. mel. ss. intermedius; strain ATCC 25261) of the same molecule?
Its Aminopeptidase activity is 1 nmol.

What about the Aminopeptidase activity (B. mel. ss. intermedius; strain ATCC 33563) of the same molecule?
The Aminopeptidase activity was 2 nmol.

And the Aminopeptidase activity (B. mel. ss. intermedius; strain NCTC 9336)?
The Aminopeptidase activity was 1 nmol.

What about the Aminopeptidase activity (B. levii; strain 18-1-5) of the same molecule?
The Aminopeptidase activity was 1 nmol.

And the Aminopeptidase activity (B. levii; strain 18-1-8)?
The Aminopeptidase activity was 0 nmol.

What about the Aminopeptidase activity (Bacteroides gingivalis; strain 9-14K-1) of the same molecule?
The Aminopeptidase activity was 0 nmol.

What about the Aminopeptidase activity (Bacteroides gingivalis; strain 11-1-2) of the same molecule?
The Aminopeptidase activity was 2 nmol.

What about the Aminopeptidase activity (Bacteroides gingivalis; strain 381) of the same molecule?
Its Aminopeptidase activity is 0 nmol.

What about the Aminopeptidase activity (Bacteroides gingivalis; strain 1021) of the same molecule?
Its Aminopeptidase activity is 0 nmol.

And the Aminopeptidase activity (Bacteroides gingivalis; strain ATCC 33277)?
The Aminopeptidase activity was 0 nmol.

And the Aminopeptidase activity (Bacteroides gingivalis; strain FAYE 19m-1)?
The Aminopeptidase activity was 0 nmol.

And the Aminopeptidase activity (Capnocytophaga sp.)?
Its Aminopeptidase activity is 0 nmol.

And the Aminopeptidase activity (B. loescheii; strain ATCC 15930)?
Its Aminopeptidase activity is 1 nmol.

What about the Aminopeptidase activity (B. loescheii; strain VPI4196) of the same molecule?
The Aminopeptidase activity was 1 nmol.

What about the Aminopeptidase activity (B. asaccharolyticus; strain 536B) of the same molecule?
Its Aminopeptidase activity is 3 nmol.

What about the Aminopeptidase activity (B. asaccharolyticus; strain ATCC 18569) of the same molecule?
Its Aminopeptidase activity is 0 nmol.

What about the Aminopeptidase activity (B. asaccharolyticus; strain ATCC 25260) of the same molecule?
Its Aminopeptidase activity is 3 nmol.

What about the Aminopeptidase activity (B. asaccharolyticus; strain ATCC 27067) of the same molecule?
The Aminopeptidase activity was 4 nmol.

And the Aminopeptidase activity (B. asaccharolyticus; strain NY446)?
The Aminopeptidase activity was 0 nmol.

And the Aminopeptidase activity (Haemophilus aphrophilus; strain ATCC 13252)?
Its Aminopeptidase activity is 0 nmol.

What about the Aminopeptidase activity (Haemophilus aphrophilus; strain ATCC 19415) of the same molecule?
Its Aminopeptidase activity is 0 nmol.

And the Aminopeptidase activity (Haemophilus aphrophilus; strain NCTC 5908)?
Its Aminopeptidase activity is 0 nmol.

What about the Aminopeptidase activity (L. fermentum) of the same molecule?
Its Aminopeptidase activity is 0 nmol.

What about the Aminopeptidase activity (F. periodonticum) of the same molecule?
Its Aminopeptidase activity is 1 nmol.

What about the Aminopeptidase activity (A. suis) of the same molecule?
Its Aminopeptidase activity is 0 nmol.

And the Aminopeptidase activity (Lactobacillus casei; strain ATCC 7469)?
Its Aminopeptidase activity is 0 nmol.

What about the Aminopeptidase activity (Lactobacillus casei; strain ATCC 11578) of the same molecule?
Its Aminopeptidase activity is 0 nmol.

And the Aminopeptidase activity (Lactobacillus casei; strain ATCC 11582)?
The Aminopeptidase activity was 0 nmol.

And the Aminopeptidase activity (S. salivarius; strain ATCC 9759)?
The Aminopeptidase activity was 2 nmol.

And the Aminopeptidase activity (S. salivarius; strain ATCC 25975)?
Its Aminopeptidase activity is 0 nmol.

What about the Aminopeptidase activity (A. equuli) of the same molecule?
Its Aminopeptidase activity is 0 nmol.
